# In the NIST ThermoML archive (doi:10.1016/j.jct.2005.02.004):
# Numbers after ± are expanded uncertainties.
# Settings: Liquid, Vibrating tube method
smiles,measurement,setting,value
CO [methanol],mass density,"298.26 K, 235 kPa",785.98 ± 0.42 kg/m3
same,mass density,"298.26 K, 5000 kPa",790.69 ± 0.43 kg/m3
same,mass density,"298.26 K, 9999 kPa",795.4 ± 0.44 kg/m3
same,mass density,"298.26 K, 15013 kPa",799.88 ± 0.45 kg/m3
same,mass density,"298.26 K, 19987 kPa",804.1 ± 0.47 kg/m3
same,mass density,"298.26 K, 25008 kPa",808.17 ± 0.48 kg/m3
same,mass density,"298.26 K, 29997 kPa",812.04 ± 0.5 kg/m3
same,mass density,"298.26 K, 34991 kPa",815.76 ± 0.52 kg/m3
same,mass density,"298.26 K, 39981 kPa",819.34 ± 0.53 kg/m3
same,mass density,"323.22 K, 270 kPa",762.14 ± 0.42 kg/m3
same,mass density,"323.22 K, 4990 kPa",767.53 ± 0.43 kg/m3
same,mass density,"323.22 K, 9984 kPa",772.87 ± 0.45 kg/m3
same,mass density,"323.22 K, 14982 kPa",777.91 ± 0.46 kg/m3
same,mass density,"323.22 K, 19989 kPa",782.69 ± 0.48 kg/m3
same,mass density,"323.22 K, 24986 kPa",787.21 ± 0.5 kg/m3
same,mass density,"323.22 K, 29995 kPa",791.53 ± 0.52 kg/m3
same,mass density,"323.22 K, 34987 kPa",795.64 ± 0.54 kg/m3
same,mass density,"323.22 K, 39993 kPa",799.6 ± 0.56 kg/m3
same,mass density,"348.25 K, 366 kPa",737.29 ± 0.43 kg/m3
same,mass density,"348.25 K, 4987 kPa",743.46 ± 0.44 kg/m3
same,mass density,"348.25 K, 9986 kPa",749.65 ± 0.46 kg/m3
same,mass density,"348.25 K, 14991 kPa",755.42 ± 0.47 kg/m3
same,mass density,"348.25 K, 20004 kPa",760.84 ± 0.49 kg/m3
same,mass density,"348.25 K, 25020 kPa",765.94 ± 0.52 kg/m3
same,mass density,"348.25 K, 30013 kPa",770.76 ± 0.54 kg/m3
same,mass density,"348.25 K, 34989 kPa",775.32 ± 0.56 kg/m3
same,mass density,"348.25 K, 40000 kPa",779.7 ± 0.58 kg/m3
same,mass density,"373.26 K, 534 kPa",710.55 ± 0.43 kg/m3
same,mass density,"373.26 K, 4983 kPa",717.67 ± 0.44 kg/m3
same,mass density,"373.26 K, 9990 kPa",724.99 ± 0.46 kg/m3
same,mass density,"373.26 K, 14998 kPa",731.69 ± 0.49 kg/m3
same,mass density,"373.26 K, 19985 kPa",737.88 ± 0.51 kg/m3
same,mass density,"373.26 K, 24994 kPa",743.68 ± 0.53 kg/m3
same,mass density,"373.26 K, 29997 kPa",749.13 ± 0.56 kg/m3
same,mass density,"373.26 K, 35001 kPa",754.27 ± 0.58 kg/m3
same,mass density,"373.26 K, 39996 kPa",759.14 ± 0.61 kg/m3
same,mass density,"398.28 K, 934 kPa",680.93 ± 0.44 kg/m3
same,mass density,"398.28 K, 4984 kPa",689 ± 0.45 kg/m3
same,mass density,"398.28 K, 9998 kPa",697.91 ± 0.47 kg/m3
same,mass density,"398.28 K, 14986 kPa",705.88 ± 0.5 kg/m3
same,mass density,"398.28 K, 19987 kPa",713.16 ± 0.53 kg/m3
same,mass density,"398.28 K, 24992 kPa",719.87 ± 0.55 kg/m3
same,mass density,"398.28 K, 29991 kPa",726.11 ± 0.58 kg/m3
same,mass density,"398.28 K, 35005 kPa",731.99 ± 0.61 kg/m3
same,mass density,"398.28 K, 40004 kPa",737.47 ± 0.64 kg/m3
